# Reference: patent US20160120858A1 (ACADEMIA SINICA, priority 2014, published 2016)
# Entries after “also recorded” stand apart in the source; their conditions may differ.
# How the values were obtained:
# Shank2^−/− mice = assay: Three-chamber social interaction assay, Shank2 mice; format: in vivo, mouse; conditions: 30 mg/kg i.p., 2 hours prior to test
# From the text: (§1) All mice were backcrossed into a C57BL/6 background, and housed and bred in a mouse vivarium at the Korea Advanced Institute of Science and Technology (KAIST, Shank2^−/−mice) and at Academia Sinica (Tbr1^+/− mice). Pups were kept with the dam until weaning at postnatal day 21. After weaning, animals were group housed in mixed-genotype groups of 3 to 5 mice per cages, and randomly subjected to electrophysiological and behavioral experiments. Animals at 3 to 5 weeks of age were used for electrophysiological experiments; male animals at 2 to 4 months of age were used for behavioral assays. For TFL-Zn staining, male animals at 8 weeks (for Shank2^−/−mice) were used. Wild-type littermates were used as controls.
# (§2) The injection was performed 2 hours before (Shank2^−/− mice and wild-type littermates), or 3 hours before (Tbr1^+/− mice and wild-type littermates) behavioral assays at the discretion of the facility.
# (§3) Testing was conducted in dedicated behavioral test rooms during the light phase (three-chamber test) and the dark phase (repetitive behaviors and open field test).
# (§4) In short, the assay consisted of three phases of 10 minutes duration: habituation, social interaction (Stranger1 vs. Object), and social novelty recognition (Stranger 1 vs. Stranger 2). Exploration was defined as each instance in which wild-type or mutant mouse tries to sniff Object/Stranger, or orients its nose towards and come close to object/stranger. Individual movement tracks were analyzed by Ethovision 10.0 (Noldus) and modified by custom-designed software MatLab (Mathworks) to generate heat maps. Time spent in exploration was analyzed by the researcher who was blinded to the subject genotype (in Shank2 mice), or by using the Smart Video Tracking System (Panlab, in Tbr1 mice). In addition to exploration time, the preference index, which represents a numerical difference between time spent exploring the targets (Stranger1 vs. Object, or Stranger 2 vs. Stranger 1) divided by total time spent exploring both targets, as described previously.
# Two hours after CQ treatment, the mice were subjected to a three-chamber social interaction test, which compares the preference of a mouse for a stranger mouse versus a novel inanimate object.
# Tbr1^+/− mice = assay: Three-chamber social interaction assay, Tbr1 mice; format: in vivo, mouse; conditions: 30 mg/kg, 3 hours before test
# From the text: as §1, §2, §3, §4
# NMDAR = assay: Simultaneous NMDA- and AMPA-eEPSCs at −40 mV, patch-clamp, hippocampal slices; format: cell-based, mouse; conditions: for NMDA-eEPSCs (NMDAR function) at −40 mV: CQ 4 uM, 20 minutes, WT and Shank2^−/− SC-CA1 synapses
# Experimental: For electrophysiological experiments, sagittal hippocampal slices (400 uM thick for extracellular, 300 uM thick for intracellular recordings) of Shank2^−/− mice (or ZnT3^−/− mice) and their wild-type littermates were prepared using a vibratome (Leica VT1200) in ice-cold dissection buffer containing (in mM) 212 sucrose, 25 NaHCO3, 5 KCl, 1.25 NaH2PO4, 0.5 CaCl2, 3.5 MgSO4, 10 D-glucose, 1.25 L-ascorbic acid, and 2 Na-pyruvate bubbled with 95% 02/5% CO2. CA3 was removed to prevent epileptiform activity. Slices were restored for 1 hour in 32° C. in a normal artificial CSF (ACSF) (In units of mM: 124 NaCl, 2.5 kCl, 1 NaH2PO4, 25 NaHCO3, 10 glucose, 2 CaC12, 2 Mg504 oxidized by 95% 02/5% CO2) For the recording, a single slice was moved to and maintained in submerged-type chamber at 28° C., continuously perfused with ACSF (2 mL/minute) saturated with 95% 02/5% CO2. Stimulation and recording pipettes were pulled from borosilicate glass capillaries (Harvard Apparatus) using a micropipette electrode puller (Narishege).
# Whole-cell patch-clamp recordings of hippocampal CA1 pyramidal neurons were also made using a MultiClamp 700B amplifier (Molecular Devices) and Digidata 1440A (Molecular Devices). During whole-cell patch-clamp recordings, series resistance was monitored each sweep by measuring the peak amplitude of the capacitance currents in response to short hyperpolarizing step pulse (5 mV, 40 ms); only cells with a change in <25% were included in the analysis. For NMDA (N-Methyl-D-aspartate)/AMPA (alpha-amino-3-hydroxy-5-methylisoxazole-4-propionic acid) ratio experiments, mouse hippocampal slices at the age of postnatal day 17 to 25 were used. The recording pipettes (2.5 to 3.5 MΩ) were filled with an internal solution containing the following (in mM): 100 CsMeSO4, 10 TEA-Cl, 8 NaCl, 10 HEPES, 5 QX-314-C1, 2 Mg-ATP, 0.3 Na-GTP, 10 EGTA, with pH 7.25, 295 mOsm). CA1 pyramidal neurons were voltage-clamped at −70 mV, and EPSPs were evoked at every 15 sec. AMPAR-mediatedEPSCs were recorded at −70 mV, and 30 consecutive responses were recorded after stable baseline. After recording AMPAR-mediated EPSPs, holding potential was changed to +40 mV to record NMDA receptor-mediated EPSPs. NMDA component was measured at 60 ms after the stimulation. The NMDA/AMPA ratio was determined by dividing the mean value of 30 NMDA components of EPSPs by the mean value of 30 AMPAR-mediated EPSC peak amplitudes. […] For measuring AMPAR-mediated and NMDAR-mediated EPSCs together upon CQ treatment, pyramidal neurons were voltage-clamped at −40 mV, and EPSCs were evoked at every 15 sec. AMPAR-mediated EPSC was determined as a peak amplitude of EPSC, and NMDAR-mediated EPSC as a component at 60 ms after stimulation. NMDA/AMPA ratio at −40 mV was calculated by using both values, and monitored during the experimental process. […] Picrotoxin (100 uM) was always added to ACSF to block GABAA receptor-mediated currents.
smiles,measurement,setting,value
"Oc1c(I)cc(Cl)c2cccnc12 [clioquinol, 5-Chloro-7-Iodo-8-Hydroxyquinoline]",Social novelty recognition,Shank2^−/− mice; Shank2^−/− (KO) mice,had no effect on social novelty recognition; also recorded: did not affect the social novelty recognition
same,Social novelty recognition,"Shank2^−/− mice; Shank2^−/− (KO) mice, listed as Clioquinol",has no effect on social novelty recognition
same,Social novelty recognition,Shank2^−/− mice; wild-type (WT) mice,had no effect on social novelty recognition; also recorded: did not affect the social novelty recognition
same,Social novelty recognition,"Shank2^−/− mice; wild-type (WT) mice, listed as Clioquinol",has no effect
same,Social novelty recognition,Tbr1^+/− mice; Tbr1^+/− (HT) mice,had no effect on social novelty recognition
same,Social novelty recognition,"Tbr1^+/− mice; Tbr1^+/− (HT) mice, listed as CQ",fails to enhance social novelty recognition; also recorded: has no effect on social novelty recognition
same,Social novelty recognition,Tbr1^+/− mice; wild-type mice,had no effect on social novelty recognition
same,Social novelty recognition,"Tbr1^+/− mice; wild-type mice, listed as CQ",has no effect
same,NMDA-eEPSCs (NMDAR function) at −40 mV,NMDAR,increased NMDA-eEPSCs
same,NMDA-eEPSCs (NMDAR function) at −40 mV,NMDAR; listed as CQ,enhances NMDAR function
same,AMPA-eEPSCs at −40 mV,"NMDAR; clioquinol treatment, WT and Shank2^−/−",not affected
same,NMDAR function (NMDA-eEPSCs at −40 mV) in the presence of sSrc (40-58),NMDAR; peptide 0.03 mg/mL in internal solution,effectively enhances NMDAR function
same,NMDAR function (NMDA-eEPSCs at −40 mV) in the presence of Src (40-58),"NMDAR; peptide 0.03 mg/mL in internal solution, Shank2^−/− SC-CA1 synapses",fails to enhance NMDAR function
